Earlier results, collected in US6969532B2, “Compounds inhibiting COX-2 and iNOS promoter activities” (priority 2000, dated 2005).

Tested on: human adenomatous polyposis
Settings: randomized clinical trial

## Cc1ccc(-c2cc(C(F)(F)F)nn2-c2ccc(S(N)(=O)=O)cc2)cc1 [Celebrex]
  extent of polyp reduction: about 30%
